Data on three compounds can be found in US20220249522A1, “Hypoxia Targeting Compositions and Combinations Thereof with a PARP Inhibitor and Methods of Use Thereof” (The Board of Trustees of the Leland Stanford Junior …, priority 2018, published 2022).

Molecules are shown by their SMILES.

Experiment [1] has as its system OVCAR8 cells. Description: Survival fraction after 96 hours tirapazamine, PARP inhibitor or combination. Type of experiment: cell-based. The conditions noted are these: tirapazamine alone 0.1 μM or 1 μM, 21% or 2% oxygen. Here is the method:
FIGS. 10A-10C show histograms of survival fractions of OVCAR8 cells treated with a vehicle, tirapazamine, olaparib, olaparib plus tirapazamine, talazoparib, or talazoparib plus tirapazamine.
(§1) The in vitro efficacy of single agent tirapazamine or a single agent PARP inhibitor (olaparib or talazoparib) or combinations of tirapazamine and a PARP inhibitor (olaparib or talazoparib) was assessed in HR deficient cell lines (OVCAR8 and SUM149) at 21% oxygen and 2% oxygen concentrations. Specifically, OVCAR8 cells were seeded and treated with one of the following for 96 hours in 21% oxygen or 2% oxygen concentrations: (i) vehicle; (ii) tirapazamine (TPZ; 0.1 μM or 1 μM); (iii) olaparib (OL; 1 μM); (iv) tirapazamine (at concentrations above) plus olaparib (1 μM); (v) talazoparib (BMN; 10 nM); or tirapazamine (at concentrations above) plus talazoparib (10 nM). […] At the end of the treatment, media from each sample was changed to a drug-free media and cells were incubated to allow for formation colonies before survival fraction was determined.

Experiment [2] concerns SUM149 cells. Description: Tirapazamine x PARPi dose matrix, survival and synergy analysis (Combenefit). The format is cell-based. As to conditions: combination with PARPi (olaparib and BMN673). Here is the method: FIGS. 9A and 9B show survival percentage of SUM149 cells treated with olaparib (0.001-10 μM) and TPZ (0.1-50 μM) or BMN673 (0.01-20 nM) and TPZ (0.1-50 μM) (FIG. 9A), and HSA synergism analysis of SUM149 cells treated with varying doses of TPZ and olaparib or TPZ and BMN673 (FIG. 9B).
(§2) The effect of combining a hypoxia activated prodrug with PARPi on cellular toxicity was assessed. […] Combenefit; a validated, open-access software program was used to analyze the data and quantify possible synergistic or antagonistic drug interactions, and relative cell kill data are presented as survival curves (FIG. 8A& 9A), while synergy scores are presented in matrix format (FIG. 8B& 9B). […] Examples are highlighted with the red squares in the matrix plots. In OVCAR8 cells for example, tirapazamine doses required to achieve a synergy score of 30-40 when cells are treated with 10 nM BMN673 are 0.5-1 μM in hypoxia and 5-10 μM in normoxia.

The test system of experiment [3] is SUM149 cells. Description: Survival fraction after 96 hours tirapazamine, PARP inhibitor or combination. The format is cell-based. The conditions noted are these: tirapazamine alone 0.1 μM or 1 μM, 21% or 2% oxygen. Here is the method: FIGS. 11A-11C show histograms of survival fractions of SUM149 cells treated with a vehicle, tirapazamine, olaparib, olaparib plus tirapazamine, talazoparib, or talazoparib plus tirapazamine.
as §1

For experiment [4], the system named is OVCAR8 cells. Description: Tirapazamine x PARPi dose matrix, survival and synergy analysis (Combenefit). Type of experiment: cell-based. As to conditions: for tirapazamine doses required to achieve a synergy score of 30-40: with 10 nM BMN673; for tirapazamine dose required for a synergy score of 20-30: with 0.1 μM olaparib. Here is the method: FIGS. 8A and 8B show survival percentage of OVCAR8 cells treated with olaparib (0.001-10 μM) and TPZ (0.1-50 μM) or BMN673 (0.01-20 nM) and TPZ (0.1-50 μM) (FIG. 8A), and HSA synergism analysis of OVCAR8 cells treated with varying doses of TPZ and olaparib or TPZ and BMN673 (FIG. 8B).
as §2

Experiment [5] has as its system non-small cell lung cancer and head and neck cancer. The conditions noted are these: background statement; cited from earlier work.
A further experiment relates to HT1080 cell line. Kind of experiment: Colony formation survival after 7 days PARP inhibitor in 21% or 2% oxygen. As to conditions: olaparib 0-1 μM or talazoparib 0-10 nM; for survival fraction versus correspondingly treated samples at 21% oxygen: 2% oxygen; for survival fraction: 21% oxygen. Type of experiment: cell-based. An excerpt: (§3) FIGS. 1A-1D show plots of survival fraction versus olaparib (AZD-2281) concentration for SUM149 (FIG. 1A), CAPAN-1 (FIG. 1B), HT1080 (FIG. 1C), and OVCAR8 (FIG. 1D) cell lines cultured in 21% oxygen or 2% oxygen conditions.
(§4) FIGS. 2A-2D show plots of survival fraction versus talazoparib (BMN 673) concentration for SUM149 (FIG. 2A), CAPAN-1 (FIG. 2B), HT1080 (FIG. 2C), and OVCAR8 (FIG. 2D) cell lines cultured in 21% oxygen or 2% oxygen conditions.
(§5) Specifically, a series of cell lines deficient for HR were treated with PARP inhibitors (olaparib or talazoparib (BMN 673)) for 7 days in 21% oxygen (representative of normoxic conditions) or 2% oxygen (representative of hypoxic conditions). In duplicates, 250-2000 cells of each cell line were seeded in 6-well plates and treated with varying concentrations of olaparib (0-1 μM) or talazoparib (0-10 nM). At the end of the treatment, media from each well was changed to drug-free media and cells were incubated to allow for formation of colonies. At the end of each incubation, colonies were fixed in 70% ethanol and stained with Crystal Violet to facilitate counting of colonies. At least 3 biological replicates were performed for each condition tested. The HR deficient cell lines treated were SUM149 (a BRAC1 mutant, triple negative breast cancer cell line), CAPAN-1 (a BRAC2 mutant, pancreatic cancer cell line), HT1080 (an IDH mutant, fibrosarcoma cell line), and OVCAR8 (a hypermethylated BRAC1 promoter, ovarian serous adenocarcinoma (high grade) cell line).

For a further experiment, the system named is CAPAN-1 cell line. The experiment is described as above. The format is cell-based. The conditions noted are these: olaparib 0-1 μM or talazoparib 0-10 nM; for survival fraction versus correspondingly treated samples at 21% oxygen: 2% oxygen; for survival fraction: 21% oxygen.
Description: as §3, §4, §5

In a further experiment the test system is SUM149 cell line. The description is as above. Type of experiment: cell-based. The conditions noted are these: olaparib 0-1 μM or talazoparib 0-10 nM; for survival fraction versus correspondingly treated samples at 21% oxygen: 2% oxygen; for survival fraction: 21% oxygen.
Description: as §3, §4, §5

Experiment [6] deals with PARP enzyme activity in OVCAR8 xenografts. Description: PAR levels in tumor lysates of xenografts (western blot). Type of experiment: in vivo. As to conditions: olaparib 50 mg/kg daily intraperitoneal for 2 days.
Description: OVCAR8 xenografts were established by subcutaneous injection of tumor cells in serum-free media/matrigel mix. Once tumors reached a size of about 100 mm^3, animals were divided into the following groups: (i) vehicle (10% 2-hydroxy-propyl-β-cyclodextrin/PBS) once a day via intraperitoneal injection (ii) olaparib (50 mg/kg) administered daily via intraperitoneal injection for 2 days. 3 animals were used per group.
Following completion of each treatment regimen, tumors were collected for analysis (FIG. 7A). PARP enzyme activity (measured via formation of PAR) was evaluated using western blot analysis.
For experiment [7], the system named is PARP enzyme activity in HT1080 cells. Kind of experiment: Western blot analysis of PAR formation. Type of experiment: cell-based. The conditions noted are these: olaparib 1 μM or talazoparib 10 nM, 7 days. Here is the method:
(§6) FIGS. 5A and 5B show western blot analyzes of the levels of poly(ADP-ribose) (PAR) in OVCAR8 cells (FIG. 5A) and HT1080 cells (FIG. 5B) following treatment with a vehicle, olaparib (AZD-2281; 1 μM), or talazoparib (BMN 673; 10 nM) cultured in 21% oxygen or 2% oxygen conditions.
(§7) Western blot analysis of PAR formation was conducted in OVCAR8 cells and HT1080 cells following treatment with a vehicle, olaparib (AZD-2281; 1 μM), or talazoparib (BMN 673; 10 nM) cultured in 21% oxygen or 2% oxygen conditions for 7 days. PAR levels in cell lysates were quantified using western blot.
(Immunoblotting shows a protein as a band on a membrane.)

Experiment [8] relates to PARP enzyme activity in OVCAR8 cells. Kind of experiment: Western blot analysis of PAR formation. Type of experiment: cell-based. As to conditions: olaparib 1 μM or talazoparib 10 nM, 7 days. Here is the method: as §6, §7
Experiment [9] has as its system breast patient-derived tumor xenografts (PDTXs). Kind of experiment: Olaparib efficacy in breast PDTX models in relation to hypoxia score. The format is in vivo. As to conditions: archived PDTX data of Bruna et al; hypoxia signature of Buffa et al. An excerpt: FIGS. 7A-7D show a schematic of diagram of olaparib treatment in OVCAR8 xenografts (FIG. 7A), a Western blot analysis of PAR levels in tumor lysates (FIG. 7B), immunohistochemical staining of vehicle- and olaparib-treated tumors (FIG. 7C), and sensitivity to olaparib inversely correlates with hypoxia in Breast PDX models (FIG. 7D).
Efficacy of olaparib in a range of patient-derived tumor xenografts (PDTXs) were previously tested in vivo by Bruna et al and the results archived in a biobank (http://caldaslab.cruk.cam.ac.uk/bcape) (see Bruna et al. Cell 167, 260-274 (2016), the disclosure of which is incorporated herein by reference). The efficacy of olaparib in these breast PDTX models in relation to their hypoxia levels was analyzed. […] (Buffa et al. Br J Cancer 102, 428-35 (2010), the disclosure of which is incorporated herein by reference). This is in accordance with the data from in vitro studies.

The next experiment has as its system OVCAR8 cell line. Kind of experiment: Colony formation survival after 7 days PARP inhibitor in 21%, 5% or 2% oxygen. The format is cell-based. As to conditions: for survival in the presence of PARP inhibitor: olaparib 1 μM or talazoparib 10 nM; for survival fraction versus correspondingly treated samples at 21% oxygen: 2% oxygen; for survival fraction versus correspondingly treated samples at 21% oxygen / survival fraction: olaparib 0-1 μM or talazoparib 0-10 nM; for survival fraction: 21% oxygen.
Description: as §3, §4, §5
These observations were further evaluated using the OVCAR8 cell line samples at 21% oxygen, 5% oxygen, and 2% oxygen concentrations. Specifically, OVCAR8 cell line samples were cultured in 21% oxygen, 5% oxygen, or 2% oxygen conditions and were treated with a vehicle, olaparib (1 μM), or talazoparib (BMN 673; 10 nM) for 7 days. At the end of the treatment, media from each well was changed to a drug-free media and cells were incubated to allow for formation colonies.

Setting [10] is: 2% oxygen compared to 5% oxygen.
Setting [11] is: 2% oxygen compared to 21% oxygen.
[12] abbreviates: 5% oxygen compared to 21% oxygen.

As to `Nc1n[n+]([O-])c2ccccc2[n+]1[O-]` [tirapazamine, 3-amino-1,2,4-benzotriazine-1,4-dioxide], the “cell survival fraction as compared to the vehicle” value in the experiment with OVCAR8 cells [1] and with SUM149 cells [3] was “did not have a significant effect” in each case. The “fold lower doses of tirapazamine required under hypoxic conditions to achieve similar or even higher synergy scores to normoxic conditions” value with SUM149 cells [2] is 10 fold; in the experiment on OVCAR8 cells [4] (combination with PARPi (olaparib and BMN673)), 10 fold. The “tirapazamine doses required to achieve a synergy score of 30-40” value lay within 0.5 to 1 µM with OVCAR8 cells [4] (hypoxia) and 5 to 10 µM in the experiment on OVCAR8 cells [4] (normoxia). Moreover, the “tirapazamine dose required for a synergy score of 20-30” value was 1 µM in the experiment with OVCAR8 cells [4] (hypoxia) and 10 µM with OVCAR8 cells [4] (normoxia). Moreover, in [5], the “efficacy in clinical trials” value is reported as “lack of efficacy”.
Turning to `O=C(c1cc(Cc2n[nH]c(=O)c3ccccc23)ccc1F)N1CCN(C(=O)C2CC2)CC1` [olaparib], the “survival fraction versus correspondingly treated samples at 21% oxygen” value with HT1080 cell line, in the experiment on CAPAN-1 cell line, in the experiment on SUM149 cell line and in the experiment with OVCAR8 cell line was “higher survival fractions” each time. Moreover, the survival fraction result in the experiment on HT1080 cell line, in the experiment with CAPAN-1 cell line, in the experiment with SUM149 cell line and with OVCAR8 cell line was “reduced” each time. Moreover, in experiment [6], the “PAR formation in xenograft samples” value was “no evidence of PAR formation”. Besides, the PAR formation result in experiment [7] (2% oxygen), in experiment [7] (21% oxygen), in [8] (2% oxygen) and in [8] (21% oxygen) was “reduced PAR formation” throughout. Moreover, in [9], the “correlation between hypoxia score of the tumors and their sensitivity to olaparib therapy” value is on record as “strong inverse correlation”. The “survival in the presence of PARP inhibitor” value with OVCAR8 cell line (setting [10]), in the experiment with OVCAR8 cell line (setting [11]) and in the experiment with OVCAR8 cell line (setting [12]) was “significantly improved survival” each time.
`Cn1ncnc1[C@H]1c2n[nH]c(=O)c3cc(F)cc(c23)N[C@@H]1c1ccc(F)cc1` [talazoparib]: the “survival fraction versus correspondingly treated samples at 21% oxygen” value in the experiment on HT1080 cell line, in the experiment with CAPAN-1 cell line, in the experiment with SUM149 cell line and in the experiment with OVCAR8 cell line was “higher survival fractions” in each case. For the same compound, the survival fraction result in the experiment with HT1080 cell line, in the experiment with CAPAN-1 cell line, in the experiment on SUM149 cell line and in the experiment with OVCAR8 cell line was “reduced” each time. The PAR formation result in [7] (2% oxygen), in [7] (21% oxygen), in [8] (2% oxygen) and in [8] (21% oxygen) was “reduced PAR formation” throughout. The “survival in the presence of PARP inhibitor” value in the experiment with OVCAR8 cell line (setting [10]), in the experiment with OVCAR8 cell line (setting [11]) and with OVCAR8 cell line (setting [12]) was “significantly improved survival” in each case.
